Structures can show the parent of a compound that is named as a salt. Where two headings read alike, the source gives them in different places.
Experiments:
KRas G12D [1] = molecular target: T1, KRas G12D (Homo sapiens, UniProt P01116, G12D); experiment: KRas G12D Binding Assay (TR-FRET displacement of labeled tracer); parameters: corresponding to amino acids 1:169, produced at Array BioPharma Inc; biotin (biotinylated); details: TR-FRET displacement of Cy5 labelled tracer, Biotinylated GDP-loaded KRAS G12D (amino acids 1:169), 60 minute incubation at 22° C.
How it was run: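 Biotinylated GDP-loaded KRAS G12D (aa 1:169) was incubated with Cy5 tracer, Eu-streptavidin and compound (2% DMSO) in HEPES pH 7.5, MgCl2, Tween-20, DTT, 60 min at 22° C. TR-FRET ratio gave POC; IC50 from 4-parameter fit at 50 POC.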
Target sequence in this assay (P01116 1-169 isoform P01116-2 G12D): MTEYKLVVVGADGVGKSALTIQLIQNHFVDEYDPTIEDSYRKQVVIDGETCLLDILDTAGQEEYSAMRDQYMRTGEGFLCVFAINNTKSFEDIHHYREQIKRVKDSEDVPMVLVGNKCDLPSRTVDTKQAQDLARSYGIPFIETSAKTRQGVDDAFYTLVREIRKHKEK

[2] = test system: KRas G12D-mediated Phosphorylation of ERK; experiment: Inhibition of KRas G12D-mediated Phosphorylation of ERK in AGS cells; format: cell-based; details: Homo sapiens
Protocol: AGS cells (ATCC CRL-1739) expressing G12D were grown in DMEM medium supplemented with 10% fetal bovine serum, 10 mM HEPES, and Penicillin/Streptomycin. Cells were plated in tissue culture treated 96 well plates at a density of 40,000 cells/well and allowed to attach for 12-14 hours. Diluted compounds were then added in a final concentration of 0.5% DMSO. After 3 hours, the medium was removed, 150 μl of 4.0% formaldehyde was added and the plates incubated at room temperature for 20 minutes. The plates were washed with PBS, and permeabilized with 150 μL of ice cold 100% methanol for 10 minutes. Non-specific antibody binding to the plates was blocked using 100 μL Licor blocking buffer (Li-Cor Biotechnology, Lincoln NE) for 1 hour at room temperature.
The amount of phospho-ERK was determined using an antibody specific for the phosphorylated form of ERK and compared to the amount of GAPDH. Primary antibodies used for the detection were added as follows: Phospho-ERK(Cell Signaling cs-9101) diluted 1:500 and GAPDH (Millipore MAB374) diluted 1:5000 in Licor block+0.05% Tween 20. The plates were incubated for 2 hours at room temperature. The plates were washed with PBS+0.05% Tween 20.
Secondary antibodies used to visualize primary antibodies were added as follows: Anti-rabbit-680 diluted 1:1000 and Anti-mouse-800 diluted 1:1000 both in Licor block+0.05% Tween20, and were incubated for 1 hour at room temperature. The plates were washed with PBS+0.05% Tween 20. A 100 μl aliquot of PBS was added to each well and the plates were read on a Li-Cor Odyssey CLX plate reader.
The phospho-ERK(Thr202/Tyr204 signal was normalized to the GAPDH signal for each well and percent of DMSO control values were calculated. IC50 values were generated using a 4-parameter fit of the dose response curve

KRas G12D [3] = molecular target: T1, KRas G12D; experiment: KRas G12D Surface Plasmon Resonance (SPR) Binding Assay; parameters: Avidin-tag (so in the source); details: Biacore T200, Biotinylated Avidin-tagged KRAS protein on SA chip, 20 C, 1:1 binding model
Protocol: This Example illustrates that exemplary compounds of the present invention bind to KRas G12D as measured by surface plasmon resonance (SPR). Briefly, 1 L of 1.05×HBS-Mg buffer (262.5 mM BioUltra Hepes, pH 7.5, 157.5 mM NaCl, 105 mM MgCl2, 0.525 mM TCEP, 0.0305% Brij-35) was prepared and filter sterilized using a 0.22 μm bottle top filter. Approximately 50 mL of 1.05×HBS-Mg buffer was removed and saved for future dilutions. A 50 mL aliquot of DMSO (Sigma Aldrich DMSO Lot. #SHBK2079) was added and continued to stir for 10 minutes, creating the final 1.0×HBS-Mg buffer (250 mM BioUltra Hepes pH 7.5, 150 mM NaCl, 100 mM MgCl2, 0.5 mM TCEP, 0.03% Brij-35). Biacore T200 instrument was primed using 1.0×HBS-Mg buffer before docking a GE Streptavidin (SA) chip and then primed two additional times prior to beginning the immobilization step. All immobilized protein mixtures were created using 3-5 mg/mL Biotinylated Avidin-tagged KRAS protein using the following immobilization settings: SA chip type, 1 flow cells per cycle, 720 second contact time, and 5 μL/min flow rate. Normalization of the detector was also performed during the immobilization step using the GE BiaNormalize solution. All compounds were diluted to 10 mM in 100% DMSO prior to being diluted 20× in 1.05× buffer. Another 10λ dilution was created using 1.0× buffer prior to performing a series of 3× dilutions to create a compound concentration curve using the following assay settings: 20 C analysis temperature, General Settings=10 Hz data collection rate and multi-detection; Assay Steps=all set to LMW kinetics; Cycle Types=LMW kinetics (60 s contact time, 120 s dissociation time, 100 μL/min flow rate, extra wash after injection with 50% DMSO, flow path 1,2,3,4); Flow path detection=2-1, 4-3). Data evaluation was performed using the Biacore T200 Evaluation software and data fit to 1:1 binding model.
Target sequence in this assay (P01116 1-188 isoform P01116-2 G12D): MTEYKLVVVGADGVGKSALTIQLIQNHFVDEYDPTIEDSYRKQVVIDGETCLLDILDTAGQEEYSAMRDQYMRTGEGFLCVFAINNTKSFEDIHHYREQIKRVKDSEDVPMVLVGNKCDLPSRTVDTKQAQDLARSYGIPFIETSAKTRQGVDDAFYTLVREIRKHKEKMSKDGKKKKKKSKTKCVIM

[4] = AGS cells expressing G12D, 3 hours, phospho-ERK signal normalized to GAPDH, read-out: IC50

Row | Compound | IC50 (KRas G12D [1]) [nM] | Kd (KRas G12D [3]) [nM] | IC50 ([2]; AGS, 3 h) [nM] | IC50 [2, 4] [nM]
1 | C#Cc1cccc2cc(O)cc(-c3ncc4c(NCC5(N(C)C)CCC5)nc(OC[C@@]56CCCN5C[C@H](F)C6)nc4c3F)c12 [Example 52, 4-(4-(((1-(dimethylamino)cyclobutyl)methyl)amino)-8-fluoro-2-(((2R,7aS)-2-fluorotetrahydro-1H-pyrrolizin-7a(5H)-yl)methoxy)pyrido[4,3-d]pyrimidin-7-yl)-5-ethynylnaphthalen-2-ol] | 0.6 | 0.04 | 12 | –
2 | CC1(CNc2nc(OC[C@@]34CCCN3C[C@H](F)C4)nc3c(F)c(-c4cc(O)cc5ccccc45)ncc23)CNC1 [Example 8, 4-(8-fluoro-2-(((2R,7aS)-2-fluorotetrahydro-1H-pyrrolizin-7a(5H)-yl)methoxy)-4-(((3-methylazetidin-3-yl)methyl)amino)pyrido[4,3-d]pyrimidin-7-yl)naphthalen-2-ol] | 39.9 | 66.8 | – | > 16700
3 | CN(C)C1(CNc2nc(OC[C@@]34CCCN3C[C@H](F)C4)nc3c(F)c(-c4cc(O)cc5ccccc45)ncc23)CCC1 [Example 1, 4-(4-(((1-(dimethylamino)cyclobutyl)methyl)amino)-8-fluoro-2-(((2R,7aS)-2-fluorotetrahydro-1H-pyrrolizin-7a(5H)-yl)methoxy)pyrido[4,3-d]pyrimidin-7-yl)naphthalen-2-ol] | 19.6 | 14.7 | 692 | –

Further lines, with some results ahead:

Row | IC50 (KRas G12D [1]) [nM] | Kd (KRas G12D [3]) [nM] | Compound | IC50 ([2]; AGS, 3 h) [nM] | IC50 [2, 4] [nM]
4 | 76.5 | 135 | CN(CC1(N(C)C)CCC1)c1nc(OC[C@@]23CCCN2C[C@H](F)C3)nc2c(F)c(-c3cc(O)cc4cccc(Cl)c34)ncc12 [Example 36, 5-chloro-4-(4-(((1-(dimethylamino)cyclobutyl)methyl)(methyl)amino)-8-fluoro-2-(((2R,7aS)-2-fluorotetrahydro-1H-pyrrolizin-7a(5H)-yl)methoxy)pyrido[4,3-d]pyrimidin-7-yl)naphthalen-2-ol dihydrochloride] | – | 3290
5 | 10 | 12.2 | CN(C)C1(CNc2nc(OC[C@@]34CCCN3C[C@H](F)C4)nc3c(F)c(-c4cc(O)cc5ccccc45)ncc23)CCCC1 [Example 7, 4-(4-(((1-(dimethylamino)cyclopentyl)methyl)amino)-8-fluoro-2-(((2R,7aS)-2-fluorotetrahydro-1H-pyrrolizin-7a(5H)-yl)methoxy)pyrido[4,3-d]pyrimidin-7-yl)naphthalen-2-ol bis(2,2,2-trifluoroacetate)] | – | 711

— US12655160B2, “KRAS G12D inhibitors” (Mirati Therapeutics, Inc., priority 2020, dated 2026)
